Reference: patent US20210255193A1, “LYSINE REACTIVE PROBES AND USES THEREOF” (The Scripps Research Institute, priority 2017, published 2021)

What was measured:
Assay in all cases: competitive isoTOP-ABPP
Assay type in all cases: binding
[1] = biological target: T1, ISOC2 Isochorismatase domain-containing protein 2, mitochondrial (Homo sapiens, UniProt Q96AB3); set-up: key to isoTOP-ABPP reactivity ratio at lysine Q96AB3_K178: R = MS1 peak area ratio, DMSO (heavy) / compound-treated (light); capped at 20; details: for isoTOP-ABPP reactivity ratio at lysine Q96AB3_K178 / isoTOP-ABPP ratio (R) at liganded lysine Q96AB3_K178: 50 uM, in vitro; for isoTOP-ABPP reactivity ratio at lysine Q96AB3_K178: 231 sol; for isoTOP-ABPP ratio (R) at liganded lysine Q96AB3_K178: sol, 231; for isoTOP-ABPP ratio, lysine Q96AB3_K178: 50 uM_231_sol_in vitro
T1 construct: isoTOP-ABPP experiments performed in cell lysates (in vitro); endogenous in cells; host or cells: soluble proteome of human cancer cell lines (MDA-MB-231; Ramos and Jurkat also prepared)
T1 sequence (Q96AB3 1-205): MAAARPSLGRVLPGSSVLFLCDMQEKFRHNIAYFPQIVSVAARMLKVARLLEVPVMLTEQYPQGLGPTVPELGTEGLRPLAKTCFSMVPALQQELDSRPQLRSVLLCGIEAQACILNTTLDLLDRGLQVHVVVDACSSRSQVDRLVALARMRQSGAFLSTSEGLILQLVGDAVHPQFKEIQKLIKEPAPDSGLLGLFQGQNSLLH
Method: (§1) In vitro covalent fragment treatment for isoTOP-ABPP. All compounds were made up as solutions in DMSO (100×) and were used at a final concentration of 50 μM for activated esters and 100 μM for guanidinylating agents. For each profiling sample, 0.5 ml of lysate was treated with 5 μl of the 100× compound stock solution or 5 μl of DMSO. Samples were treated with activated esters for
(§2) STP-alkyne labeling and click chemistry. For concentration-dependent reactivity measurements by isoTOP-ABPP, 0.5 ml proteome aliquots were treated at ambient temperature with 1 mM STP-alkyne 1 (5 μl of 100 mM stock in DMSO) and 0.1 mM STP alkyne 1 (5 μl of 10 mM stock in DMSO), respectively. For competitive isoTOP-ABPP, after in vitro fragment treatment (detailed above), the samples were labeled for 1 h at ambient temperature with 0.1 mM STP-alkyne 1 (5 μl of 10 mM stock in DMSO). Samples were conjugated by copper-mediated azide-alkyne cycloaddition (CuAAC) to either the light (1 mM STP-alkyne or fragment treated) or heavy (0.1 mM STP-alkyne or DMSO treated) TEV tags (10 μl of 5 mM stocks in DMSO, final concentration=100 μM) using tris(2-carboxyethyl)phosphine hydrochloride
(§3) R value calculation and processing. The ratios of light and heavy MS1 peaks for each unique peptide were quantified with a CIMAGE software using default parameters (3 MS1 acquisitions per peak and signal to noise threshold set to 2.5). For reactivity measurements by isoTOP-ABPP, the R value was calculated from the ratio of MS1 peak areas, comparing the 1 mM STP alkyne sample (light TEV tag) with the 0.1 mM STP alkyne sample (heavy TEV tag). For competitive isoTOP-ABPP, the R value was calculated from the ratio of MS1 peak areas, comparing the DMSO treated sample (heavy TEV tag) with the compound treated sample (light TEV tag). […] Ratios for unique peptide entries are calculated for each experiment; overlapping peptides with the same modified lysine (for example, different charge states, MudPIT chromatographic steps or tryptic termini) are grouped together and the median ratio is reported as the final ratio (R). The peptide ratios reported by CIMAGE were further filtered to ensure the removal or correction of low-quality ratios in each individual data set. The quality filters applied were the following: removal of half tryptic peptides; for ratios with high standard deviations from the median (90% of the median or above) the lowest ratio was taken instead of the median; removal of peptides with R=20 and only a single MS2 event triggered during the elution of the parent ion; manual annotation of all the peptides with ratios of 20, removing any peptides with low quality elution profiles that remained after the previous curation steps (only done for competitive isoTOP-ABPP).
(§4) Cross-data processing for fragment screening. For compound treated samples, biological replicates of the same condition were averaged, if the standard deviation was below 60% of the mean; otherwise, for lysines with at least one R value <4 for a particular compound, the lowest value of the ratio set was taken. For lysines, where all R values for a particular compound were ≥4, the average was reported. For peptides containing several possible modified lysines, the lysine with the highest number of quantification events was used for analysis and the remaining, redundant peptides were reported as alternative modification sites. Peptides included in the aggregate dataset (those used for further bioinformatics and statistical analyses) were required to have been quantified in 2 experiments for competitive isoTOP-ABPP. Lysines were categorized as liganded, if they had at least one ratio R≥4 (hit fragments). For liganded lysines with R=20 for all liganding events, lysines were required to have been quantified with R=20 in two separate experiments and were further required to have been quantified with R<20 in one additional experiment.

PLIN3 Perilipin-3 = biological target: T2, PLIN3 Perilipin-3 (Homo sapiens, UniProt O60664); set-up: key to isoTOP-ABPP reactivity ratio at lysine O60664_K257 / isoTOP-ABPP reactivity ratio at lysine O60664_K140: R = MS1 peak area ratio, DMSO (heavy) / compound-treated (light); capped at 20; details: for isoTOP-ABPP reactivity ratio at lysine O60664_K140 / isoTOP-ABPP reactivity ratio at lysine O60664_K257 / isoTOP-ABPP ratio (R) at liganded lysine O60664_K140 / isoTOP-ABPP ratio (R) at liganded lysine O60664_K257: 50 uM, in vitro; for isoTOP-ABPP reactivity ratio at lysine O60664_K140 / isoTOP-ABPP reactivity ratio at lysine O60664_K257: 231 sol; for isoTOP-ABPP ratio (R) at liganded lysine O60664_K140 / isoTOP-ABPP ratio (R) at liganded lysine O60664_K257: sol, 231
T2 construct: isoTOP-ABPP experiments performed in cell lysates (in vitro); endogenous in cells; host or cells: MDA-MB-231 soluble lysate
T2 sequence (O60664 1-434): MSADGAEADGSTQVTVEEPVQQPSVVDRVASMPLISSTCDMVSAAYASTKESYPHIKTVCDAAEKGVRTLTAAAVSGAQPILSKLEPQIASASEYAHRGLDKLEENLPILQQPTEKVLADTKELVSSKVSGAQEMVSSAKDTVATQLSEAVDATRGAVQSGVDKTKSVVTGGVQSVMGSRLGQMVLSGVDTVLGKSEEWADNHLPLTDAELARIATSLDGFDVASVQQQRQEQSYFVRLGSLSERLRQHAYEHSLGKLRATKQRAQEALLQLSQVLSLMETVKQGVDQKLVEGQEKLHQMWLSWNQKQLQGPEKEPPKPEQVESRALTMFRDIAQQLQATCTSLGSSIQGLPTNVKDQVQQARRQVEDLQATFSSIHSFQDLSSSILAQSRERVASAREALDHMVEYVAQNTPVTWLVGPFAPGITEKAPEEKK
Method: as §1, §2, §3, §4

[2] = biological target: T3, CPOX Coproporphyrinogen-III oxidase, mitochondrial (Homo sapiens, UniProt P36551); set-up: key to isoTOP-ABPP reactivity ratio at lysine P36551_K404: R = MS1 peak area ratio, DMSO (heavy) / compound-treated (light); details: for isoTOP-ABPP reactivity ratio at lysine P36551_K404 / isoTOP-ABPP ratio (R) at liganded lysine P36551_K404: 50 uM, in vitro; for isoTOP-ABPP reactivity ratio at lysine P36551_K404: 231 sol; for isoTOP-ABPP ratio (R) at liganded lysine P36551_K404: sol, 231; for isoTOP-ABPP ratio, lysine P36551_K404: 50 uM_231_sol_in vitro
T3 construct: isoTOP-ABPP experiments performed in cell lysates (in vitro); endogenous in cells; host or cells: soluble proteome of human cancer cell lines (MDA-MB-231; Ramos and Jurkat also prepared)
T3 sequence (P36551 111-454): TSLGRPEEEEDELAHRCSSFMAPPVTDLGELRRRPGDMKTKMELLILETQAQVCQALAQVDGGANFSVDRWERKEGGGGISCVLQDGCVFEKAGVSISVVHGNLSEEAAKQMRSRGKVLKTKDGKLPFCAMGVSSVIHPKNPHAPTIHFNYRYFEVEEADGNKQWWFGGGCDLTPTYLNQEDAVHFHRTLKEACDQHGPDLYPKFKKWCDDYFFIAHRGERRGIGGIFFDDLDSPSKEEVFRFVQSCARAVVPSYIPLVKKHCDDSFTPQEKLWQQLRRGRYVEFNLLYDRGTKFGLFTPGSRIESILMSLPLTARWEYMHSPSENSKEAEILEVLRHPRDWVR
Method: as §1, §2, §3, §4

| SMILES | isoTOP-ABPP reactivity ratio at lysine Q96AB3_K178 [1] | isoTOP-ABPP reactivity ratio at lysine O60664_K140 (PLIN3 Perilipin-3) | isoTOP-ABPP reactivity ratio at lysine O60664_K257 (PLIN3 Perilipin-3) | isoTOP-ABPP reactivity ratio at lysine P36551_K404 [2] | isoTOP-ABPP ratio (R) at liganded lysine Q96AB3_K178 [1] | isoTOP-ABPP ratio (R) at liganded lysine O60664_K140 (PLIN3 Perilipin-3) | isoTOP-ABPP ratio (R) at liganded lysine O60664_K257 (PLIN3 Perilipin-3) | isoTOP-ABPP ratio (R) at liganded lysine P36551_K404 [2] | also measured |
| --- | --- | --- | --- | --- | --- | --- | --- | --- | --- |
| CCn1cc(C(=O)Oc2c(F)c(F)c(F)c(F)c2F)c(=O)c2ccc(C)nc21 [fragment 28, Pentafluorophenyl 1-ethyl-7-methyl-4-oxo-1,4-dihydro-1,8-naphthyridine-3-carboxylate] | 1.8 | 1.2 | 1.1 | 0.9 | – | – | – | – | – |
| O=C(CCc1cn(-c2ccccc2)nc1-c1ccccc1)Oc1ccc([N+](=O)[O-])cc1[N+](=O)[O-] [fragment 29, 2,4-Dinitrophenyl 3-(1,3-diphenyl-1H-pyrazol-4-yl)propanoate] | 1.7 | 2.1 | 3.5 | 18.1 | – | – | – | – | – |
| O=C(Oc1ccc([N+](=O)[O-])cc1[N+](=O)[O-])C(c1ccccc1)c1ccccc1 [fragment 30, 2,4-Dinitrophenyl 2,2-diphenylacetate] | 1.0 | 4.5 | 2.9 | 1.1 | – | – | – | – | – |
| COc1cc(CCC(=O)Oc2ccc([N+](=O)[O-])cc2[N+](=O)[O-])cc(OC)c1OC [fragment 33, 2,4-Dinitrophenyl 3-(3,4,5-trimethoxyphenyl)propanoate] | 9.1 | 1.1 | 2.2 | 1.0 | – | – | – | – | – |
| O=C(Oc1ccc([N+](=O)[O-])cc1[N+](=O)[O-])c1ccc2ccccc2n1 [fragment 35, 2,4-Dinitrophenyl quinoline-2-carboxylate] | – | – | – | – | 1.3 | 1.1 | 1.2 | 1.2 | – |
| O=C(CCc1coc2cc(F)ccc2c1=O)Oc1ccc([N+](=O)[O-])cc1[N+](=O)[O-] [fragment 36, 2,4-Dinitrophenyl 3-(7-fluoro-4-oxo-4H-chromen-3-yl)propanoate] | – | – | – | – | 1.7 | 1.5 | 3.9 | 1.0 | – |
| O=C(Oc1ccc([N+](=O)[O-])cc1[N+](=O)[O-])c1ccc(-c2ccccc2)cc1 [fragment 37, 2,4-Dinitrophenyl [1,1′-biphenyl]-4-carboxylate] | – | – | – | – | 0.9 | – | 3.5 | 1.0 | – |
| O=C(Oc1ccc([N+](=O)[O-])cc1[N+](=O)[O-])c1ccc(Oc2ccccc2)cc1 [fragment 39, 2,4-Dinitrophenyl 4-phenoxybenzoate] | – | – | – | – | 0.9 | 2.0 | 2.2 | 1.0 | – |
| O=C(Oc1ccc([N+](=O)[O-])cc1[N+](=O)[O-])c1ccccc1Nc1cccc(C(F)(F)F)c1 [fragment 40, 2,4-Dinitrophenyl 2-((3-(trifluoromethyl)phenyl)amino)benzoate] | – | – | – | – | 0.9 | – | 1.6 | 1.8 | – |
| CC(C)(C)OC(=O)NCCCC(=O)Oc1ccc([N+](=O)[O-])cc1[N+](=O)[O-] [fragment 41, 2,4-Dinitrophenyl 4-((tert-butoxycarbonyl)amino)butanoate] | – | – | – | – | 1.9 | 2.1 | – | 1.0 | – |
| O=C(Oc1ccc([N+](=O)[O-])cc1[N+](=O)[O-])C(c1ccccc1)(c1ccccc1)c1ccccc1 [fragment 42, 2,4-Dinitrophenyl 2,2,2-triphenylacetate] | – | – | – | – | 1.0 | 0.9 | 0.9 | 1.0 | – |
| N#Cc1ccc(C(=O)Oc2ccc([N+](=O)[O-])cc2[N+](=O)[O-])cc1 [fragment 44, 2,4-Dinitrophenyl 4-cyanobenzoate] | – | – | – | – | – | – | – | – | isoTOP-ABPP ratio, lysine Q96AB3_K178 [1]: 1.3; isoTOP-ABPP ratio, lysine O60664_K257 (PLIN3 Perilipin-3; 50 uM_231_sol_in vitro): 1.9; isoTOP-ABPP ratio, lysine P36551_K404 [2]: 1.0 |
| O=C(CCc1ccc2c(c1)OCO2)Oc1ccc([N+](=O)[O-])cc1[N+](=O)[O-] [fragment 45, 2,4-Dinitrophenyl 3-(benzo[d][1,3]dioxol-5-yl)propanoate] | – | – | – | – | – | – | – | – | isoTOP-ABPP ratio, lysine Q96AB3_K178 [1]: 1.8; isoTOP-ABPP ratio, lysine O60664_K140 (PLIN3 Perilipin-3; 50 uM_231_sol_in vitro): 2.1; isoTOP-ABPP ratio, lysine O60664_K257 (PLIN3 Perilipin-3; 50 uM_231_sol_in vitro): 2.5; isoTOP-ABPP ratio, lysine P36551_K404 [2]: 1.2 |
